# According to patent US12180193B2, “Accelerating fibrosarcoma protein degrading compounds and associated methods of use” (Arvinas Operations, Inc., priority 2020, dated 2024):
# Read-outs that look alike come from different tables or passages of the source.
# Legend:
# [1] = target: T1, BRAF V600E (Homo sapiens, UniProt P15056, V600E); assay: Cellular assay of target protein degradation, T-Rex 293 cells stably transfected with HA-BRAF_V600E (HA immunofluorescence, high content imaging); assay type: cell-based
# T1 construct: expressed in transfected cells
# In short: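 Doxycycline-induced (1 ng/mL) T-Rex 293 cells expressing HA-BRAF V600E treated 24 h at 37 °C with compound at 1 μM to 0.1 nM final in 0.1% DMSO. Remaining HA-tagged protein quantified by fixed-cell anti-HA immunofluorescence and high-content imaging; DC50 and Dmax (% of control) derived.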
# [2] = target: T2, BRAF G466V (Homo sapiens, UniProt P15056, G466V); assay: Cellular assay of target protein degradation, T-Rex 293 cells stably transfected with HA-BRAF G466V (HA immunofluorescence, high content imaging); assay type: cell-based
# T2 construct: expressed in transfected cells
# In short: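 Doxycycline-induced (0.75 ng/mL) cells treated 24 h at 37 °C with compound from 30 nM to 3 pM (0.1% DMSO). After fixation and permeabilisation, HA-tagged BRAF G466V immunostained and quantified by high-content imaging. DC50 and Dmax (percent of control) derived.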
# [3] = half maximal degradation, T-Rex 293 HA-BRAF V600E; read-out: BRaf V600E DC50
# [4] = maximum degradation observed, T-Rex 293 HA-BRAF V600E
# [5] = half maximal degradation, T-Rex 293 HA-BRAF G466V; read-out: BRaf G466V DC50
# [6] = maximum degradation observed, T-Rex 293 HA-BRAF G466V
# T1 sequence (P15056 whole entry V600E): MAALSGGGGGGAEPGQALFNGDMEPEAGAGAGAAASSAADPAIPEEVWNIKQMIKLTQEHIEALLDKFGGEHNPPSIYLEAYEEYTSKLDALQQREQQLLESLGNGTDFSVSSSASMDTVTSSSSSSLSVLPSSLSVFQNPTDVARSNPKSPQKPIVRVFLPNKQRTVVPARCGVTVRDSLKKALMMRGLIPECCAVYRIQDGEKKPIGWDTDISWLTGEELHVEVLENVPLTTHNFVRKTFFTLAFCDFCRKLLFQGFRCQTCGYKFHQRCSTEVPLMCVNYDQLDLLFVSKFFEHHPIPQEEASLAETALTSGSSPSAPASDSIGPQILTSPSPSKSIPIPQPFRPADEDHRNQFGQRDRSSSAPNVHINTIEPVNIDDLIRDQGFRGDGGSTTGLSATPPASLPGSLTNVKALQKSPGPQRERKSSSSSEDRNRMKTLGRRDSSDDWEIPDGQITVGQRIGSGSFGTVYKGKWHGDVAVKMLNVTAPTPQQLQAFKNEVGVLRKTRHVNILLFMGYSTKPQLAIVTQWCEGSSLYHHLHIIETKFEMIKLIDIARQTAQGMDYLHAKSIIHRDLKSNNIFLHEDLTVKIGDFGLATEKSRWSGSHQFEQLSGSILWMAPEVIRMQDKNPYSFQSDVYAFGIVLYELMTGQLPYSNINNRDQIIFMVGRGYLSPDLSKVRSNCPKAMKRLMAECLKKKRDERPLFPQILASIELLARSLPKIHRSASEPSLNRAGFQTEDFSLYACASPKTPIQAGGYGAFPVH
# T2 sequence (P15056 whole entry G466V): as the sequence (P15056 whole entry V600E) above, with G466V, E600V counted along it
SMILES,"DC50 [1, 3] [nM]","Dmax [1, 4] [%]","DC50 [2, 5] [nM]","Dmax [2, 6] [%]","DC50 ([1]; read-out: BRaf V600E DC50; half maximal degradation, T-Rex 293 HA-BRAF V600E) [nM]","DC50 ([2]; read-out: BRaf G466V DC50; half maximal degradation, T-Rex 293 HA-BRAF G466V) [nM]"
"O=C1CCC(N2Cc3cc(N4CCC(CN5CCC(Cc6ccc(-c7cnc8[nH]cc(C(=O)c9c(F)ccc(NS(=O)(=O)N%10CC[C@@H](F)C%10)c9F)c8c7)cc6)CC5)CC4)ccc3C2=O)C(=O)N1 (stereo partly drawn) [Compound 154, (3R)-N-{3-[5-(4-{[1-({1-[2-(2,6-dioxopiperidin-3-yl)-1-oxo-2,3-dihydro-1H-isoindol-5-yl]piperidin-4-yl}methyl)piperidin-4-yl]methyl}phenyl)-1H-pyrrolo[2,3-b]pyridine-3-carbonyl]-2,4-difluorophenyl}-3-fluoropyrrolidine-1-sulfonamide]",5 to 50,35 to 70,< 1,> 70,,
"O=C1CCC(N2Cc3cc(N4CC[C@@H]4COc4ccc(-c5cnc6[nH]cc(C(=O)c7c(F)ccc(NS(=O)(=O)N8CC[C@@H](F)C8)c7F)c6c5)cc4)ccc3C2=O)C(=O)N1 (stereo partly drawn) [Compound 15, (3R)-N-{3-[5-(4-{[(2R)-1-[2-(2,6-dioxopiperidin-3-yl)-1-oxo-2,3-dihydro-1H-isoindol-5-yl]azetidin-2-yl]methoxy}phenyl)-1H-pyrrolo[2,3-b]pyridine-3-carbonyl]-2,4-difluorophenyl}-3-fluoropyrrolidine-1-sulfonamide]",> 500,,> 30,,,
"O=C1CCC(N2Cc3cc(N4CCC(CN5CCCN(c6ccc(-c7cnc8[nH]cc(C(=O)c9c(F)ccc(NS(=O)(=O)N%10CC[C@@H](F)C%10)c9F)c8c7)cc6)CC5)CC4)ccc3C2=O)C(=O)N1 (stereo partly drawn) [Compound 322, (3R)-N-[3-(5-{4-[4-({1-[2-(2,6-dioxopiperidin-3-yl)-1-oxo-2,3-dihydro-1H-isoindol-5-yl]piperidin-4-yl}methyl)-1,4-diazepan-1-yl]phenyl}-1H-pyrrolo[2,3-b]pyridine-3-carbonyl)-2,4-difluorophenyl]-3-fluoropyrrolidine-1-sulfonamide]",,< 35,,35 to 70,50 to 500,1 to 10
"O=C1CCC(N2Cc3cc(CCCCCN4CCN(c5ccc(-c6cnc7[nH]cc(C(=O)c8c(F)ccc(NS(=O)(=O)N9CC[C@@H](F)C9)c8F)c7c6)cc5)CC4)ccc3C2=O)C(=O)N1 (stereo partly drawn) [Compound 64, (3R)-N-(3-{5-[4-(4-{5-[2-(2,6-dioxopiperidin-3-yl)-1-oxo-2,3-dihydro-1H-isoindol-5-yl]pentyl}piperazin-1-yl)phenyl]-1H-pyrrolo[2,3-b]pyridine-3-carbonyl}-2,4-difluorophenyl)-3-fluoropyrrolidine-1-sulfonamide]",5 to 50,35 to 70,< 1,35 to 70,,
"O=C1CCC(N2Cc3cc(N4CCC(CN5CC6(CCN(c7ccc(-c8cnc9[nH]cc(C(=O)c%10c(F)ccc(NS(=O)(=O)N%11CC[C@@H](F)C%11)c%10F)c9c8)cc7F)C6)C5)CC4)ccc3C2=O)C(=O)N1 (stereo partly drawn) [Compound 111, (3R)-N-[3-(5-{4-[2-({1-[2-(2,6-dioxopiperidin-3-yl)-1-oxo-2,3-dihydro-1H-isoindol-5-yl]piperidin-4-yl}methyl) 2,6-diazaspiro[3.4]octan-6-yl]-3-fluorophenyl}-1H-pyrrolo[2,3-b]pyridine-3-carbonyl)-2,4-difluorophenyl]-3-fluoropyrrolidine-1-sulfonamide]",< 5,35 to 70,1 to 10,35 to 70,,
"O=C1CCC(N2Cc3cc(N4CC(CN5CCC(Cc6ncc(-c7cnc8[nH]cc(C(=O)c9c(F)ccc(NS(=O)(=O)N%10CC[C@@H](F)C%10)c9F)c8c7)cn6)CC5)C4)ccc3C2=O)C(=O)N1 (stereo partly drawn) [Compound 194, (3R)-N-{3-[5-(2-{[1-({1-[2-(2,6-dioxopiperidin-3-yl)-1-oxo-2,3-dihydro-1H-isoindol-5-yl]azetidin-3-yl}methyl)piperidin-4-yl]methyl}pyrimidin-5-yl)-1H-pyrrolo[2,3-b]pyridine-3-carbonyl]-2,4-difluorophenyl}-3-fluoropyrrolidine-1-sulfonamide]",50 to 500,35 to 70,1 to 10,> 70,,

# The next lines start with results.
"DC50 [1, 3] [nM]","Dmax [1, 4] [%]","DC50 [2, 5] [nM]","Dmax [2, 6] [%]",SMILES,"DC50 ([1]; read-out: BRaf V600E DC50; half maximal degradation, T-Rex 293 HA-BRAF V600E) [nM]","DC50 ([2]; read-out: BRaf G466V DC50; half maximal degradation, T-Rex 293 HA-BRAF G466V) [nM]"
5 to 50,< 35,1 to 10,< 35,"O=C1CCC(NC(=O)c2ccc(N3CCC(CN4CC5(C4)CN(c4ccc(-c6cnc7[nH]cc(C(=O)c8c(F)ccc(NS(=O)(=O)N9CC[C@@H](F)C9)c8F)c7c6)cc4)C5)CC3)cn2)C(=O)N1 (stereo partly drawn) [Compound 354, 5-(4-{[6-(4-{3-[2,6-difluoro-3-({[(3R)-3-fluoropyrrolidin-1-yl]sulfonyl}amino)benzoyl]-1H-pyrrolo[2,3-b]pyridin-5-yl}phenyl)-2,6-diazaspiro[3.3]heptan-2-yl]methyl}piperidin-1-yl)-N-(2,6-dioxopiperidin-3-yl)pyridine-2-carboxamide]",,
5 to 50,35 to 70,1 to 10,> 70,"O=C1CCC(N2Cc3cc(N4CCC(CN5CC[C@@H]6[C@H](C5)CN6c5ccc(-c6cnc7[nH]cc(C(=O)c8c(F)ccc(NS(=O)(=O)N9CC[C@@H](F)C9)c8F)c7c6)cc5)CC4)ccc3C2=O)C(=O)N1 (stereo partly drawn) [Compound 311, (3R)-N-[3-(5-{4-[(1R,6R)-3-({1-[2-(2,6-dioxopiperidin-3-yl)-1-oxo-2,3-dihydro-1H-isoindol-5-yl]piperidin-4-yl}methyl)-3,7-diazabicyclo[4.2.0]octan-7-yl]phenyl}-1H-pyrrolo[2,3-b]pyridine-3-carbonyl)-2,4-difluorophenyl]-3-fluoropyrrolidine-1-sulfonamide]",,
5 to 50,35 to 70,1 to 10,35 to 70,"C[C@H]1CCCN1S(=O)(=O)Nc1ccc(F)c(C(=O)c2c[nH]c3ncc(-c4ccc(N5CCC(CN6CCC(c7ccc8c(c7)CN([C@H]7CCC(=O)NC7=O)C8=O)CC6)CC5)cc4)cc23)c1F [Compound 211, (2S)—N-{3-[5-(4-{4-[(4-{2-[(3S)-2,6-dioxopiperidin-3-yl]-1-oxo-2,3-dihydro-1H-isoindol-5-yl}piperidin-1-yl)methyl]piperidin-1-yl}phenyl)-1H-pyrrolo[2,3-b]pyridine-3-carbonyl]-2,4-difluorophenyl}-2-methylpyrrolidine-1-sulfonamide]",,
5 to 50,< 35,1 to 10,> 70,"O=C1CCC(N2Cc3cc(C4CCN(CC5CN(c6ccc(-c7cnc8[nH]cc(C(=O)c9c(F)ccc(NS(=O)(=O)N%10CC[C@@H](F)C%10)c9F)c8c7)cc6)C5)CC4)ccc3C2=O)C(=O)N1 (stereo partly drawn) [Compound 198, (3R)-N-[3-(5-{4-[3-({4-[2-(2,6-dioxopiperidin-3-yl)-1-oxo-2,3-dihydro-1H-isoindol-5-yl]piperidin-1-yl}methyl)azetidin-1-yl]phenyl}-1H-pyrrolo[2,3-b]pyridine-3-carbonyl)-2,4-difluorophenyl]-3-fluoropyrrolidine-1-sulfonamide]",,
50 to 500,< 35,10 to 30,35 to 70,"O=C1CCC(N2C(=O)c3ccc(C4CCN(CC5CCN(c6ccc(-c7cnc8[nH]cc(C(=O)c9c(F)ccc(NS(=O)(=O)N%10CC[C@@H](F)C%10)c9F)c8c7)cc6)CC5)CC4)cc3C2=O)C(=O)N1 (stereo partly drawn) [Compound 323, (3R)-N-[3-(5-{4-[4-({4-[2-(2,6-dioxopiperidin-3-yl)-1,3-dioxo-2,3-dihydro-1H-isoindol-5-yl]piperidin-1-yl}methyl)piperidin-1-yl]phenyl}-1H-pyrrolo[2,3-b]pyridine-3-carbonyl)-2,4-difluorophenyl]-3-fluoropyrrolidine-1-sulfonamide]",,
